Data as given in PMC11992225, “Antibacterial compounds against non-growing and intracellular bacteria” (npj Antimicrobials and Resistance, 2025).
In brackets after ≈: the same amount, converted by molar mass. Read-outs that look alike come from different tables or passages of the source.

How the values were obtained:
E. coli CFT073 (UPEC) = assay: MIC, standard microdilution assay, growing UPEC; type: cell-based, Escherichia coli; settings: E. coli
In short: (§1)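 Each strain was exposed to serially diluted compound in broth, in triplicate. The media were TSB for Shigella; CA-MHB at pH 7.4 (HEPES 40 mM) for S. aureus, P. aeruginosa and UPEC; and, for UPEC only, low-pH LPM (pH 5.5, 30 mM MES).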

S. aureus DSM2569 = assay: MIC, standard microdilution assay, growing S. aureus; type: cell-based, Staphylococcus aureus; settings: S. aureus, CA-MHB pH 7.4, read-out: MIC (μM) CA-MHB
In short: as §1

S. flexneri 5a M90T = assay: MIC in tryptic soy broth, S. flexneri; type: cell-based, Shigella flexneri
In short: as §1

non-growing UPEC CFT073 = assay: Dilution-regrowth assay (screen, hit validation, dose-response) on stationary-phase UPEC; type: cell-based, Escherichia coli; settings: for activity against non-growing UPEC in LPM (pH 5.5) compared to 1:4 CA-MHB (pH 7.4): regrowth delay and killing, Figs. 2 and 3; for EC50: Escherichia coli
In short: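 Regrowth (OD600 after 6 h, 37 °C) of diluted non-growing CFT073, following 24 h compound treatment of 24 h stationary cultures, defines activity relative to untreated control. Screen at 20 µM, validation at 20, 10, 5 µM (duplicates), dose–response in three biological replicates fitted by five-parameter logistic.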

[1] = E. coli in 1:4 CA-MHB (pH 7.4), drug concentration 0.25
[2] = E. coli in 1:4 CA-MHB (pH 7.4), drug concentration 0.5
[3] = E. coli in 1:4 CA-MHB (pH 7.4), drug concentration 1
[4] = E. coli in 1:4 CA-MHB (pH 7.4), drug concentration 2.5
[5] = E. coli in 1:4 CA-MHB (pH 7.4), drug concentration 5
[6] = E. coli in 1:4 CA-MHB (pH 7.4), drug concentration 10
[7] = E. coli in 1:4 CA-MHB (pH 7.4), drug concentration 30
[8] = E. coli in LPM (pH 5.5), drug concentration 0.25
[9] = E. coli in LPM (pH 5.5), drug concentration 0.5
[10] = E. coli in LPM (pH 5.5), drug concentration 1
[11] = E. coli in LPM (pH 5.5), drug concentration 2.5
[12] = E. coli in LPM (pH 5.5), drug concentration 5
[13] = E. coli in LPM (pH 5.5), drug concentration 10
[14] = E. coli in LPM (pH 5.5), drug concentration 30

Compound | Regrowth, OD600 at 6h or 8h after dilution into drug-free medium (average) (non-growing UPEC CFT073; [1]) | Regrowth, OD600 at 6h or 8h after dilution into drug-free medium (average) (non-growing UPEC CFT073; [2]) | Regrowth, OD600 at 6h or 8h after dilution into drug-free medium (average) (non-growing UPEC CFT073; [3]) | Regrowth, OD600 at 6h or 8h after dilution into drug-free medium (average) (non-growing UPEC CFT073; [4]) | Regrowth, OD600 at 6h or 8h after dilution into drug-free medium (average) (non-growing UPEC CFT073; [5]) | Regrowth, OD600 at 6h or 8h after dilution into drug-free medium (average) (non-growing UPEC CFT073; [6]) | Regrowth, OD600 at 6h or 8h after dilution into drug-free medium (average) (non-growing UPEC CFT073; [7]) | Regrowth, OD600 at 6h or 8h after dilution into drug-free medium (average) (non-growing UPEC CFT073; [8]) | Regrowth, OD600 at 6h or 8h after dilution into drug-free medium (average) (non-growing UPEC CFT073; [9]) | Regrowth, OD600 at 6h or 8h after dilution into drug-free medium (average) (non-growing UPEC CFT073; [10]) | Regrowth, OD600 at 6h or 8h after dilution into drug-free medium (average) (non-growing UPEC CFT073; [11]) | Regrowth, OD600 at 6h or 8h after dilution into drug-free medium (average) (non-growing UPEC CFT073; [12]) | Regrowth, OD600 at 6h or 8h after dilution into drug-free medium (average) (non-growing UPEC CFT073; [13]) | Regrowth, OD600 at 6h or 8h after dilution into drug-free medium (average) (non-growing UPEC CFT073; [14]) | activity against non-growing UPEC in LPM (pH 5.5) compared to 1:4 CA-MHB (pH 7.4) (non-growing UPEC CFT073) | also measured
Plicamycin | 0.612 | 0.607 | 0.618 | 0.623 | 0.619 | 0.615 | 0.623 | 0.574 | 0.571 | 0.572 | 0.561 | 0.562 | 0.546 | 0.390 | potentiated by the low pH | MIC (E. coli CFT073 (UPEC); LPM pH 5.5, read-out: MIC): 32 µM; MIC (E. coli CFT073 (UPEC); pH 7.4, CA-MHB, read-out: MIC (μM) CA-MHB): 160 µM; MIC (S. aureus DSM2569): 0.25 µM; MIC (μM) TSB (S. flexneri 5a M90T; S. flexneri, extracellular bacteria in TSB): >128 µM
CCCCC(CC)CNC(=N)NC(=N)NCCCCCCNC(=N)NC(=N)NCC(CC)CCCC (stereo not shown) [Alexidine] | 0.643 | 0.630 | 0.631 | 0.636 | 0.622 | 0.568 | 0.074 | 0.604 | 0.591 | 0.602 | 0.604 | 0.576 | 0.067 | 0.069 | potentiated by the low pH | MIC (E. coli CFT073 (UPEC); Escherichia coli, pH 7.4, CA-MHB, read-out: MIC (μM) CA-MHB): 2 µM (≈ 1.02 µg/mL); MIC (S. aureus DSM2569; Staphylococcus aureus, DSM2569): 1 µM (≈ 0.509 µg/mL); MIC (S. flexneri 5a M90T; Shigella flexneri, 5AM90T, read-out: MIC (μM) TSB): 1 µM (≈ 0.509 µg/mL); EC50 (non-growing UPEC CFT073; 1:4 CA-MHB pH 7.4 (black curve), medium assigned by comparison with Dataset 1, read-out: EC50 (regrowth inhibition curve, Fig. S4)): 23.4 µM; EC50 (non-growing UPEC CFT073; E. coli, pH 7.4, regrowth delay of non-growing bacteria, 1:4 CA-MHB, 24 h treatment, OD600 6 h after 2500-fold dilution, read-out: EC50): 15.6 µM; EC50 (non-growing UPEC CFT073; LPM pH 5.5 (red curve), medium assigned by comparison with Dataset 1, read-out: EC50 (regrowth inhibition curve, Fig. S4)): 7.18 µM
